Calls of active or inactive are those of the source.
Assays:
[1] = target: DNA dC->dU-editing enzyme APOBEC-3G (Homo sapiens, UniProt Q9HC16); assay: Dose Response confirmation of small molecule APOBEC3G DNA Deaminase Inhibitors via a fluorescence-based single-stranded DNA deaminase assay. [Related pubchem assays (depositor defined):AID493012, AID493028]; assay type: functional
Fatty acid synthase = Fatty acid synthase (Homo sapiens, UniProt P49327); assay: FAS thioesterase domain inhibitors, dose response, biochemical, kinetic fluorescence intensity (AID 624326); assay type: functional;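 also: rate of fluorescence rise from hydrolysis of a fluorogenic O-methyl fluorescein ester substrate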
Chain of Fatty acid synthase (P49327 whole entry, the tested form may be a part): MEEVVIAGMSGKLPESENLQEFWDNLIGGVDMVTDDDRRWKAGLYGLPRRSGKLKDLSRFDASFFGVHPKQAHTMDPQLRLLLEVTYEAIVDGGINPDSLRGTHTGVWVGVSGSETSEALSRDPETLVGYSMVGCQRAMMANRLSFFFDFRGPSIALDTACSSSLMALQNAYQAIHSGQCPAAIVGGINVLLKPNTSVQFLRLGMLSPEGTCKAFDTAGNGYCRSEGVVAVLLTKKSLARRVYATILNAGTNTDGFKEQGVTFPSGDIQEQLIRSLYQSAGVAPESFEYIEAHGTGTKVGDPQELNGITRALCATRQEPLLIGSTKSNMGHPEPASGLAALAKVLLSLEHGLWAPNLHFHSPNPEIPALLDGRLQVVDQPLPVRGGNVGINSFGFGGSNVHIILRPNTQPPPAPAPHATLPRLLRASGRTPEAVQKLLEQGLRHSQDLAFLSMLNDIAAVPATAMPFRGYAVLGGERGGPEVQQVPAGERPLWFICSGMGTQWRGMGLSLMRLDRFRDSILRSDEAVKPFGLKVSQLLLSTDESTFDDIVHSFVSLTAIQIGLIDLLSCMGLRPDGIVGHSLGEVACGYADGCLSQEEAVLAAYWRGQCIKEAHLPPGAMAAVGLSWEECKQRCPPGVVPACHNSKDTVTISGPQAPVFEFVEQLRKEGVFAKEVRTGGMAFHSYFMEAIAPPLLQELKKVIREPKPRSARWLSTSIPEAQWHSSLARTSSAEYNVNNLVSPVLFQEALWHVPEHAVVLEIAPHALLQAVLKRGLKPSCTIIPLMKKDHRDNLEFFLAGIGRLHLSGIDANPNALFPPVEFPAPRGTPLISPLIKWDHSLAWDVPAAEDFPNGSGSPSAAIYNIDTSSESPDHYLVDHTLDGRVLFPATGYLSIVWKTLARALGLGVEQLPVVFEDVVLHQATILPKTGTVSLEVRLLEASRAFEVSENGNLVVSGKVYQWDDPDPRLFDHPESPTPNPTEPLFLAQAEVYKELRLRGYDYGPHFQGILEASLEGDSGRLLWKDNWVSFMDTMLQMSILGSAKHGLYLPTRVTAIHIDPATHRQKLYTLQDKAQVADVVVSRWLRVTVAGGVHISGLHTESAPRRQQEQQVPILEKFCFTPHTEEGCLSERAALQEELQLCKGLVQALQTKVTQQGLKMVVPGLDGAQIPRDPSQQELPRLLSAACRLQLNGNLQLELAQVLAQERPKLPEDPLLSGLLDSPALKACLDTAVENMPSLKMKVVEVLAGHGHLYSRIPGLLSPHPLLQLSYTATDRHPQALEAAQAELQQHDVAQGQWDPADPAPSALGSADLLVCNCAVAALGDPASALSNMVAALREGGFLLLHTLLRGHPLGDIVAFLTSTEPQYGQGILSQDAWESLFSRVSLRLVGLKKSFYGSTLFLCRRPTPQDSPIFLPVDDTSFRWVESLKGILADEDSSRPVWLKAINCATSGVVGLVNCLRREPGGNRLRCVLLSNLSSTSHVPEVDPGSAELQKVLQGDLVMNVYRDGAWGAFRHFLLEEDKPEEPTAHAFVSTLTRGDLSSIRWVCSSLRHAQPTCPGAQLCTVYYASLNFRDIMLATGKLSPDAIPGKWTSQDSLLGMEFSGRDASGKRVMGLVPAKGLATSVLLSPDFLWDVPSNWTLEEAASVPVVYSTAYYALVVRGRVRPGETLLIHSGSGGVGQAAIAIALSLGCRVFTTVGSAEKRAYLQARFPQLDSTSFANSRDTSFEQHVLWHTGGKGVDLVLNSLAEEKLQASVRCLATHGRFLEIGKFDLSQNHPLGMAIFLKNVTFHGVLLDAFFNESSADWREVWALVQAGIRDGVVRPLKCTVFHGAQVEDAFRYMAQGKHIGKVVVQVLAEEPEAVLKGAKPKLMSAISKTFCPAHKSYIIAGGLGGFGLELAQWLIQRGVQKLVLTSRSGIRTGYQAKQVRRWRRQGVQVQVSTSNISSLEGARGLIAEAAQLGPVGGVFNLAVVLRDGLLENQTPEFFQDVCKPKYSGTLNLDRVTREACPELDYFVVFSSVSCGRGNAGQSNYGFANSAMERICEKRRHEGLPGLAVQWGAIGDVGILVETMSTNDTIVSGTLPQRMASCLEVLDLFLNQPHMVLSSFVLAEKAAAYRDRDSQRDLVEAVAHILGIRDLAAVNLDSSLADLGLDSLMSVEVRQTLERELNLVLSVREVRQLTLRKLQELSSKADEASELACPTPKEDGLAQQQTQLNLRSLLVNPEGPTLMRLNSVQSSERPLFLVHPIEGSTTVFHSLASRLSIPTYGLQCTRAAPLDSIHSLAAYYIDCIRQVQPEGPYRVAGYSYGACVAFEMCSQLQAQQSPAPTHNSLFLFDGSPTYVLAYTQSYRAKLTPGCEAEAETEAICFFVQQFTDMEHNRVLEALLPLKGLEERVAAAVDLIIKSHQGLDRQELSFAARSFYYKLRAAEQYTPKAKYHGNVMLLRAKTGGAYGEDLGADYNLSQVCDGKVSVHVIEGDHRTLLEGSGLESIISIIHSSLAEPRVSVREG

Aminopeptidase N = target: T1, Aminopeptidase N (Plasmodium falciparum FcB1/Columbia, UniProt O96935); assay: P. falciparum M1AAP inhibitors, biochemical, fluorogenic H-Leu-NHMec substrate, 1536-well (AID 1445); design: species or system Plasmodium falciparum 3D7, 3D7
T1 sequence (O96935 whole entry): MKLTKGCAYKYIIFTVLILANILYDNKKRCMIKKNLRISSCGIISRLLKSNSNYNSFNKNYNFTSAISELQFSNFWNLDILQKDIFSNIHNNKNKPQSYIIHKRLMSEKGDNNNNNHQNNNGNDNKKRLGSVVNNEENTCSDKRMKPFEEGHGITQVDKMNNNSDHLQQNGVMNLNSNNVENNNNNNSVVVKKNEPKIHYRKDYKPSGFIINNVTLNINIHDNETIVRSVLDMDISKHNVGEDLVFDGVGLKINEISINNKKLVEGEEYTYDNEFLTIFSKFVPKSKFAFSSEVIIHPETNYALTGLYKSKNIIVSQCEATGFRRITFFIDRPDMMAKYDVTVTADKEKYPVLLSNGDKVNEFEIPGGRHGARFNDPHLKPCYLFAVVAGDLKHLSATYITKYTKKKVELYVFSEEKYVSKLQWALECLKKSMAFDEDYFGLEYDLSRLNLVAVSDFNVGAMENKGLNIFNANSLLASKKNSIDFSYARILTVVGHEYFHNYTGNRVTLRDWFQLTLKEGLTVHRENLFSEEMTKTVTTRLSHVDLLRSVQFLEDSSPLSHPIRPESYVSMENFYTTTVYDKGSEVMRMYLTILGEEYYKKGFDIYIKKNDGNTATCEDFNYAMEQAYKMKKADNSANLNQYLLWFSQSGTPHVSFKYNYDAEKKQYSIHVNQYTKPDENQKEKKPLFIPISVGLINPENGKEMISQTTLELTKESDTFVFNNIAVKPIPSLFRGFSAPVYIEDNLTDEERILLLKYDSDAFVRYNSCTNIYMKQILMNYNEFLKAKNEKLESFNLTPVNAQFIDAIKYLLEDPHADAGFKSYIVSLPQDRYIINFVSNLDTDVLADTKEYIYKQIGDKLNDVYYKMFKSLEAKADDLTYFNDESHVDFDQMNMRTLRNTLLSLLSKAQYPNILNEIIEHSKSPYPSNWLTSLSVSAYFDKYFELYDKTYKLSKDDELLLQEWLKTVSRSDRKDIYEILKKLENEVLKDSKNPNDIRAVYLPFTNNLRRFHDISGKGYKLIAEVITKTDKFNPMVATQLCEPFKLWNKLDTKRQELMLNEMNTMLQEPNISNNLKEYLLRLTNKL

[2] = target: T2, Short transient receptor potential channel 4 (Mus musculus, UniProt Q9QUQ5); assay: mouse TRPC4 channel activators, dose response, cell-based, HEK293 TRPC4/mu-opioid, Fluo-4 calcium (AID 434937); assay type: functional
T2 sequence (Q9QUQ5 whole entry): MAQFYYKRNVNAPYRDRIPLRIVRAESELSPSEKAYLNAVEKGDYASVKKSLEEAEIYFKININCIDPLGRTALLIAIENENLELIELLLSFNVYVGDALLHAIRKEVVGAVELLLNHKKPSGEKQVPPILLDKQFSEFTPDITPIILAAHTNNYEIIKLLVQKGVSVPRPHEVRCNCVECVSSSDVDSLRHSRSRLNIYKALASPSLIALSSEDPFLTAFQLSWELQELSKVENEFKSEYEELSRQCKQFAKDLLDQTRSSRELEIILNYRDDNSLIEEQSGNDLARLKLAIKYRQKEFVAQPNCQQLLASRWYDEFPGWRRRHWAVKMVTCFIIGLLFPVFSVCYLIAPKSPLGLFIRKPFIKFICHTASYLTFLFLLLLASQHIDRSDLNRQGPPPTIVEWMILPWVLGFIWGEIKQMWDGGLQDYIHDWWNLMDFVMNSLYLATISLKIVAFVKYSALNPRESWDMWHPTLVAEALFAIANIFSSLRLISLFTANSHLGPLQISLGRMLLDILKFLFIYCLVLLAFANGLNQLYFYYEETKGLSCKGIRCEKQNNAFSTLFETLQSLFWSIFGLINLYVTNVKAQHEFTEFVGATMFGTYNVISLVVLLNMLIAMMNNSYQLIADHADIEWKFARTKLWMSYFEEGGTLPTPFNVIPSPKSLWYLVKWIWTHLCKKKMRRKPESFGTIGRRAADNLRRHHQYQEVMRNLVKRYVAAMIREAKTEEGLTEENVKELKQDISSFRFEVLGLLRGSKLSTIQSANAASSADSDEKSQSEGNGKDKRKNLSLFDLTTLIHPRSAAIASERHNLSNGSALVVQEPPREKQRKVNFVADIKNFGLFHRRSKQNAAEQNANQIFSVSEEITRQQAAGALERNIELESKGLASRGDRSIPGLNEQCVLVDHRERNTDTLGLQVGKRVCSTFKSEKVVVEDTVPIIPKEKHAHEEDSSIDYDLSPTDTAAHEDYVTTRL

[3] = target: Glyceraldehyde-3-phosphate dehydrogenase (Homo sapiens, UniProt P04406)
Chain of Glyceraldehyde-3-phosphate dehydrogenase (P04406 whole entry): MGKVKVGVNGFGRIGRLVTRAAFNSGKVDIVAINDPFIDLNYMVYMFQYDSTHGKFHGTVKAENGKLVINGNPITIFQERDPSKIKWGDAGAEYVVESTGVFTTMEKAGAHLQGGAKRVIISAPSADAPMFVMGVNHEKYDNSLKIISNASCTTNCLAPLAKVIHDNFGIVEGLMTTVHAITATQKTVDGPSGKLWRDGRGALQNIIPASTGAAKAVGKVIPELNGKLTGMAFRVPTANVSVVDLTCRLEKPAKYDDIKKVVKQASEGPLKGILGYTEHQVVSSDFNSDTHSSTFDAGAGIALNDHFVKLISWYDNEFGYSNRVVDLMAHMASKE

cells = assay type: functional
Large T antigen = Large T antigen (Simian virus 40, UniProt P03070); assay type: functional, Betapolyomavirus macacae;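 also: Confirmatory-stage PubChem screen for compounds that inhibit SV40 T antigen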
Chain of Large T antigen (P03070 whole entry, the tested form may be a part): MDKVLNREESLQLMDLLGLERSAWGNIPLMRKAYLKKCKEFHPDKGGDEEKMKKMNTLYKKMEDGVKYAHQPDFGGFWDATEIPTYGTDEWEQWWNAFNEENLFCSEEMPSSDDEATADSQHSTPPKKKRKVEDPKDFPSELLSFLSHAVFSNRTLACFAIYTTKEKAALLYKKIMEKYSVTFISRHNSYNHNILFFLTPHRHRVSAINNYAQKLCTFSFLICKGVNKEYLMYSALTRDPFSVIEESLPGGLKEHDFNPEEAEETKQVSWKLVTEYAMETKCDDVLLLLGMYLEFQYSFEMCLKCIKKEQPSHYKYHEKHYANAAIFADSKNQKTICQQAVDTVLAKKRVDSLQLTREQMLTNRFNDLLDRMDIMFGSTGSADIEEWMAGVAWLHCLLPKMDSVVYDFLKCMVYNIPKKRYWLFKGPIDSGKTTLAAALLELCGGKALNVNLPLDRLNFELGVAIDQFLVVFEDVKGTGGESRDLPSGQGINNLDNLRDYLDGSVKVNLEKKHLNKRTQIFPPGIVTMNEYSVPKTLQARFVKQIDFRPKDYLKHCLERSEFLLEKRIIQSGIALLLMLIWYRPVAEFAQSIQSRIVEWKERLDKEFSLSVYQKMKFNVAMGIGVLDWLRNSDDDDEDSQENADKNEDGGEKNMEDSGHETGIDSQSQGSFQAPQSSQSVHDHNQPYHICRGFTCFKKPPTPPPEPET

[4] = target: T3, Carboxy-terminal domain RNA polymerase II polypeptide A small phosphatase 1 (Homo sapiens, UniProt Q9GZU7); assay: inhibitors of CTDSP1, concentration-response testing, biochemical assay, absorbance-based, actives from ultra-high-throughput screening (AID 540297); assay type: functional
T3 sequence (Q9GZU7 whole entry): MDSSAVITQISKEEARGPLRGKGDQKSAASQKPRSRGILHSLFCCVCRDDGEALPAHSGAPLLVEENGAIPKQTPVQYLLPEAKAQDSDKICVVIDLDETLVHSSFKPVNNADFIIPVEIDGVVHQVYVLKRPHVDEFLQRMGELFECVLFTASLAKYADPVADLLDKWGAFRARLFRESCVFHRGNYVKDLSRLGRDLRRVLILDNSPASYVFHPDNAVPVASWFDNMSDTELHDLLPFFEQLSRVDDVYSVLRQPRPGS

BJ [5] = assay: cytotoxicity toward BJ-TERT fibroblasts, dose response, cell-based, RAS-independent, luminescence (AID 1933); assay type: functional; details: Homo sapiens
BJ [6] = assay: cells; assay type: functional, cell-based; details: Homo sapiens
BJ [7] = assay: cytotoxicity toward BJ-TERT-LT-ST fibroblasts, dose response, cell-based, RAS-independent, luminescence (AID 1935); assay type: functional; details: Homo sapiens;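 also: BJ fibroblasts immortalized with TERT plus LT and ST oncogenes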
[8] = cytotoxicity toward DRD oncogenic fibroblasts, dose response, cell-based, non-viral oncogenic, luminescence (AID 1934); assay type: functional; details: Homo sapiens
[9] = target: T4, Replicative DNA helicase DnaB (Mycobacterium tuberculosis, UniProt P9WMR3); assay: DnaB intein splicing inhibitors, dose response, biochemical, cell-free fluorescence (AID 449749); assay type: functional
T4 sequence (P9WMR3 whole entry): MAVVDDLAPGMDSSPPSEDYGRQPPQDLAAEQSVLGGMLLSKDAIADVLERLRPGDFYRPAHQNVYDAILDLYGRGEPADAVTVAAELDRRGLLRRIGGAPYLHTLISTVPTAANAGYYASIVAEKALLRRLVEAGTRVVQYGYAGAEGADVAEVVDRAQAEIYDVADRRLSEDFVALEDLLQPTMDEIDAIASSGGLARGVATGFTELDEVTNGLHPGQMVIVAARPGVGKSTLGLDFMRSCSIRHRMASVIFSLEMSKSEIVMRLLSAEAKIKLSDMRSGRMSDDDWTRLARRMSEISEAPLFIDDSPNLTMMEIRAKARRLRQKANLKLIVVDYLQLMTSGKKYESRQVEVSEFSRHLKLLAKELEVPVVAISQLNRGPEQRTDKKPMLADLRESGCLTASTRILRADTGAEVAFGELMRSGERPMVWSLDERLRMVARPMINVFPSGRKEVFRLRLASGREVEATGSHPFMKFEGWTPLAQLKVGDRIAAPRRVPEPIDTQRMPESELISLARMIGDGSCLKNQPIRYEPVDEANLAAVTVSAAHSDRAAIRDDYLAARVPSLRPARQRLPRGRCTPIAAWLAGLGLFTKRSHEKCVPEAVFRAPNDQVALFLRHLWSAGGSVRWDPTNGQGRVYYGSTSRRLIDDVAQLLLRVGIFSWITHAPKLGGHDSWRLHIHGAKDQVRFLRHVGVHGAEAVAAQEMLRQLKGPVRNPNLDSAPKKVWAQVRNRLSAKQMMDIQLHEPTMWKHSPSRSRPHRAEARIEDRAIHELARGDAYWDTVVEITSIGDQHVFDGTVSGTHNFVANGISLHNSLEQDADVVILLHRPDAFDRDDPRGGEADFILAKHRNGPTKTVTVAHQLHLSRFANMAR

Protein RecA = target: T5, Protein RecA (Mycobacterium tuberculosis, UniProt P9WHJ3); assay: Fluorescence Cell-Free Homogeneous Dose Retest to Identify Inhibitors of RecA-Intein Splicing Activity. [Related pubchem assays (depositor defined):AID2097, AID2223, AID489010, AID492950]; assay type: functional
T5 sequence (P9WHJ3 whole entry): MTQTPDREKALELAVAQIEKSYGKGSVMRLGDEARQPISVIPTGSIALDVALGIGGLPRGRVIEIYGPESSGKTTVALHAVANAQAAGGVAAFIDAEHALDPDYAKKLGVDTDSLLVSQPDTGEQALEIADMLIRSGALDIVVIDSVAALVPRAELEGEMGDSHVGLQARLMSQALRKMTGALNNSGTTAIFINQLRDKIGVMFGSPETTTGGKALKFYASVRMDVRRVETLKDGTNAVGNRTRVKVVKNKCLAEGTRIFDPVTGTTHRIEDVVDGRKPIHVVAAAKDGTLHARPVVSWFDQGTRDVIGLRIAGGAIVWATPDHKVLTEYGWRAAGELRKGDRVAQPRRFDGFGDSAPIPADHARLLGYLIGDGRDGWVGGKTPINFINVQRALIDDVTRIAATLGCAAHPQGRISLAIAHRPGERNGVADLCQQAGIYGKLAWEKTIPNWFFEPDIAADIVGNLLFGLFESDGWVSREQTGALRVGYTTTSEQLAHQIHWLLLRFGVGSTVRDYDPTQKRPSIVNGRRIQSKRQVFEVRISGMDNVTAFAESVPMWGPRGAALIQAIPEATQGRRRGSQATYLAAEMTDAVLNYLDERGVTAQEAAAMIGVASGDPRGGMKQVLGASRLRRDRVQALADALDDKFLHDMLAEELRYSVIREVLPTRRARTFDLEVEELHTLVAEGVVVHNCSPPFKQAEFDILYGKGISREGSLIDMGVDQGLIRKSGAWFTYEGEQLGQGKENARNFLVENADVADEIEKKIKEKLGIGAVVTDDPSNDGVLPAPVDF

[10] = microbe, parasite or virus in culture; assay type: functional; details: Mycobacterium tuberculosis
[11] = THP-1 cell cytotoxicity, dose response, cytotoxicity control for non-replicating M. tuberculosis project (AID 489025); assay type: functional

Chain of DNA dC->dU-editing enzyme APOBEC-3G (Q9HC16 whole entry, the tested form may be a part): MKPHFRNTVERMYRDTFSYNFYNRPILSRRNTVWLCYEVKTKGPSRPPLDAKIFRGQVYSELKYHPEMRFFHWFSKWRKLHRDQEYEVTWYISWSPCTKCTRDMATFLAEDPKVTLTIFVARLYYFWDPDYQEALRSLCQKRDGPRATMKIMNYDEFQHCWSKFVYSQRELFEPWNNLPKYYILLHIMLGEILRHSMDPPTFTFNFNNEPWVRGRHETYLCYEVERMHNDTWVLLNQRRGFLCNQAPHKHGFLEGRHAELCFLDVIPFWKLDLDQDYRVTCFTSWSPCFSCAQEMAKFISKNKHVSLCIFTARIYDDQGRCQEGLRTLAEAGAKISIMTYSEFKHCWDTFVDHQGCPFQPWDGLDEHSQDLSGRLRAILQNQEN

CCCC(C)c1nnc(NC(=O)c2cc(C(=O)OC)cc([N+](=O)[O-])c2)s1 (stereo not given)
IC50 [1]: 19.6 µM (active) | IC50 (Fatty acid synthase): 7.04 µM (active)

Cc1noc(NS(=O)(=O)c2ccc(NC(=O)CSc3nnc(-c4ccccc4)n3C3CCCCC3)cc2)c1C
IC50 (Aminopeptidase N): 75.9 µM (active)

CCOC(=O)C1(CCc2ccccc2)CCN(Cc2c(O)cccc2OC)CC1
EC50 [2]: 0.299 µM (active)

O=C(NCCCO)c1cc(-c2ccc(Cl)cc2Cl)n[nH]1
IC50 [3]: > 10 µM (inconclusive)

Oc1nc(-c2ccncc2)nc2ccccc12
IC50 [1]: 44.8 µM (active)

CC(C)(C)NC(=O)C(=O)NNC(=O)COc1ccc(Br)cc1
IC50 (Aminopeptidase N): 619 µM (active) | IC50 (cells): 17.9 µM (active)

O=C(NCc1cccs1)C1CCN(S(=O)(=O)c2ccccc2F)CC1
IC50 (Aminopeptidase N): 51 µM (active)

CC(=O)NC(=S)NNC(=O)COc1ccc(Br)cc1
IC50 (Aminopeptidase N): 2.57 µM (active)

COc1ccc(-c2nc(CN3CCC(C(=O)NC4CCCC4)CC3)c(C)o2)cc1OC
EC50 [2]: 0.473 µM (active)

Cc1csc(NC(=O)CSCC(=O)O)c1-c1nc2ccccc2s1
IC50 (Aminopeptidase N): 7.09 µM (active)

Cc1ccc(N2C(=O)NC(=O)/C(=C/c3ccc(-c4ccc(C(=O)O)c(Cl)c4)o3)C2=O)cc1
IC50 (Large T antigen): 32.7 µM (active) | IC50 [4]: 5.49 µM (active)

CN(C)/C=C/C=C1C(=O)CCCC1=O
IC50 [4]: 7.28 µM (active)

S=C(NCCc1c[nH]cn1)NC1CCCC1
EC50 [2]: 0.084 µM (active)

O=C(NC1CCCC1)C(c1ccc(F)cc1)N(Cc1ccccc1Cl)C(=O)CCl (stereo not given)
EC50 (BJ [5]): 5.5 µM (active) | EC50 (BJ [6]): 14.8 µM (active) | EC50 (BJ [7]): > 150 µM (inconclusive) | EC50 [8]: 8.7 µM (active) | AC50 [9]: > 380 µM (inactive) | EC50 (Protein RecA): 0.215 µM (active)

O=C(N/N=C/c1ccc(OCCCF)cc1)c1ccc(C(F)(F)F)cc1
IC50 [4]: 13.2 µM (active)

c1ccc(-c2cc(-c3nn4c(-c5ccco5)nnc4s3)c3ccccc3n2)cc1
IC50 [4]: 16.6 µM (active)

C=C1CCC[C@]2(C)C[C@H]3OC(=O)C(CNC(C)CCCC(C)C)[C@H]3CC12 (stereo not given in full)
CC50 [10]: 27 µM (active) | CC50 [11]: 22.1 µM (active) | IC50 (cells): 30.6 µM (active)

Cc1ccc(C2N(c3ccc(Cl)c(Cl)c3)C(=O)C3CCCN32)o1 (stereo not given)
EC50 [2]: 4.22 µM (active)

c1ccc2oc(N3CCNCC3)nc2c1
EC50 [2]: 0.668 µM (active)

O=C(O)c1cc(NS(=O)(=O)c2cccc3cccnc23)ccc1O
IC50 [3]: > 100 µM (not active)
